The text below walks through data of patent publication US11964943B2, “3,5-diarylidenyl-n-substituted-piperid-4-one-derived inhibitors of Stat3 pathway activity and uses thereof” (priority 2017, dated 2024).

As a reminder, the IC50 is the concentration that inhibits the measured activity by half.

One assay deals with DU145 cells. The assay is described as follows: SRB growth inhibition and combination index with cisplatin, DU145. The assay is classed as cell-based. How it is done:
(§1) The affected fractions were calculated from the SRB or MTT assay absorbance values and were registered to derive the respective CI values and isobolograms. A CI value of less than 1 (one) indicates synergy.
(§2) The SRB assay was used to assess cell growth inhibition by IE-8 alone and in combination with cisplatin. […] For combination studies drug treatments were sequential with IE-8 applied first followed by cisplatin for 1 h. […] Absorbance was read at 540 nm and results were normalized to untreated controls. For analysis of GC50 values and statistical significance, non-linear regression analysis with a comparison of fits was performed with the GraphPad Prism 6.0 software.
(§3) Drug Combination studies. Sulforhodamine B (SRB) Cell Growth Inhibition Assay. The SRB assay was used to assess cell growth inhibition by 8 h alone and in combination with cisplatin. […] For combination studies drug treatments were sequential with 8 h applied first followed by cisplatin for 1 h. […] Absorbance was read at 540 nm and results were normalized to untreated controls. For analysis of GC50 values and statistical significance, non-linear regression analysis with a comparison of fits was performed with the GraphPad Prism 6.0 software.

Assay [1] has as its system A2780-cisplatin resistant spheroids. The experiment in a line: Spheroid diameter measurement. It counts as cell-based. As to conditions: 96 h. How it is done:
(§4) For cell spheroid formation, HCT116-oxaliplatin resistant cells, A2780-cisplatin resistant cells, and HT1080 cells were seeded in Corning® Spheroid opaque-walled 96 well Microplates (ultra-low attachment; Nuclon™ Sphera™, Thermofisher) at densities of 2000 cells/well in 100 μl of cell solution and allowed to grow for 4 days, before any manipulation.
The diameters of spheroid cells were determined using Cell^F Imaging Software. A diameter corresponds to the mean value of one horizontal and one vertical measurement.

In the next assay the test system is A549 cells. The assay is described as follows: SRB growth inhibition and combination index with cisplatin, A549. The assay is classed as cell-based, human. As to the method: as §1, §2, §3
The test system of a further assay is pStat3^Tyr705. The assay is described as follows: Immunoblotting of phosphorylated Stat3 in cancer cells. It counts as cell-based, human. The conditions noted are these: DU145 and A549 cells with constitutively active Stat3, 18 h. How it is done: (§5) Whole cell lysates were prepared by incubation of harvested, trypsinised cells with CelLytic™ lysis buffer (Sigma-Aldrich) supplemented with 1× protease and 1× phosphatase inhibitors (Roche). Protein quantification was carried out using a protein assay kit (Bio-Rad). 40 μg of the lysates were denatured by heating for 5 min at 95° C. in sample buffer containing 100 mM Tris-Cl (pH 6.8), 4% SDS, 10% 2-mercaptoethanol, 20% glycerol, and 0.02% bromophenol blue. Precision Plus Protein Dual colour standards (Bio-Rad) were used as a molecular weight reference. For the detection of STAT3, pSTAT3, α/β tubulin, cleaved PARP, Bcl-2, Bcl-xL, FANCD2, BRCA1, EME1 and MUS81, proteins were separated on a NuPAGE 7% Tris-acetate gel (Life Technologies) and subsequently transferred to polyvinylidene difluoride membranes (Immobilon®-P transfer membrane; Millipore). […] Membranes were blocked for 1 h at ambient temperature in a blocking buffer containing 5% w/v Bovine Serum Albumin (BSA; Sigma-Aldrich) in 1×TBS, 0.1% Tween-20. All proteins were identified by incubation in a 1:1000 dilution of the respective polyclonal antibodies (Cell signaling) in blocking buffer overnight at 4° C. and subsequent incubation for 1 h with an anti-rabbit or anti-mouse secondary antibody (Cell signalling) at a dilution of 1:1000. The α/β tubulin (1:2000; Cell Signaling) and the anti-phospho-histone H2AX Antibody (1:500; Millipore) were used in the denoted dilutions. Antibody binding was visualized by enhanced chemiluminescence (Amersham) on autoradiography film (Kodak-X-Omat). Alternatively Images were captured by the GelDoc-It Imaging System Fusion Fx7 (Vilber Lourmat, Germany).
as §5, with “Immunoblotting. Whole” for “Whole”, “CelLytic™ M” for “CelLytic™”, “pSTAT3, a/0” for “pSTAT3, α/β”, “in 1×TBS” for “in 1×TBS,”, “(Cell signalling)” for “(Cell signaling)”
For orientation: Immunoblotting shows a protein as a band on a membrane.

Assay [2] has as its system A2780-cisplatin resistant spheroids. The experiment in a line: CellTiter-Glo 3D cell viability assay, A2780-cisplatin resistant spheroids. The assay is classed as cell-based. The conditions noted are these: 96 h exposure, 3D CellTiter-Glo. How it is done:
as §4
(§6) At the end of drug incubation, both the plates and the CellTitre-Glo® reagent (previously thawn overnight in the fridge) were equilibrated at room temperature for at least 30 min. Subsequently, 100 μl of cell solution were carefully removed from each well, without disrupting the spheroid and equal volume of CellTitre-Glo® reagent was added. Cell lysis was performed by vigorously shaking the plate for 5 min. To stabilize the luminescent signal, the plate was incubated in the dark at RT for another 30 min before luminescence was recorded on a plate reader. The cell viability of treated samples was normalised to the untreated controls.
(§7) The cytotoxicity studies in spheroids were conducted using the CellTiter-Glo® 3D Cell viability assay (Promega) following the instructions of the manufacturer.
For orientation: ATP-based viability assays read luminescence as a measure of living cells.

Assay [3] concerns HCT116-oxaliplatin resistant cells. The experiment in a line: Colony formation assay with oxaliplatin. It counts as cell-based. As to conditions: 1 μM oxaliplatin alone, 10 days. How it is done: HCT116-oxaliplatin res cells were seeded at 2000 cells/well in 6-well plates and allowed to adhere overnight. The next day, oxaliplatin and IE-8 were added simultaneously. First, the specific amount of cells solution was removed from each well and afterwards the same volume of the appropriate drug dilution was added to achieve the right concentration. IE-8 was diluted in DMA. Cells were also treated with Oxaliplatin and IE-8 alone. The plates were left the incubator and the cells were allowed to grow colonies for 10 days. After 10 days the entire cell solution was removed from each well, which was subsequently washed with 500 μl of PBS. 1 ml of cold 100% methanol was added and the plates were incubated for 30 minutes at 4 C. After a second wash, the cells were stained with 1 ml of […] staining dye for 2-3 minutes, rinsed with water, allowed to dry overnight and the colonies were quantified using a gel imaging system (Fusion Fx7) and its in-built colony counter software.

Assay [4] relates to HCT116-oxaliplatin resistant spheroids. The experiment in a line: CellTiter-Glo 3D cell viability assay, HCT116-oxaliplatin resistant spheroids. It counts as cell-based. As to conditions: 96 h exposure, 3D CellTiter-Glo. As to the method:
as §4
as §6, with “Spheroid cells were treated by adding 100 μl of 2-fold the desired compound concentration and incubated at 37° C. for 96 h. At” for “At”
as §7

Where [5] appears, read: cisplatin alone 1 h, 96 h total, SRB.

Several values for one entry are separate records, joined by “and”; a condition that tells them apart may be missing. Identical values can stand only once.

With `N.N.[Cl][Pt][Cl]` [Cisplatin, reference compound], the IC50 with DU145 cells (setting [5]) was 49.2 µM and 49.3 µM; in the assay on A549 cells (setting [5]) it was 77.8 µM and 64.6 µM. Besides, the “Diameter (μm)” value in assay [1] (cisplatin 1.75 μM) is given as 1071.4 μm; in assay [1] (cisplatin 3.5 μM), 1047.5 μm; in assay [1] (cisplatin 5.25 μM) it was 916.4 μm; in assay [1] (cisplatin 7.0 μM), 833.6 μm; in assay [1] (cisplatin 7.0 μM, listed as cisplatin), 834 μm; in assay [1] (cisplatin 8.75 μM) it was 713.0 μm.
Turning to `O=[N+]([O-])c1ccc2c(c1)S(=O)(=O)C=C2` [Stattic], in the assay on pStat3^Tyr705, the “inhibition of Stat3 tyrosine (705) phosphorylation (pStat3)” value was “much higher doses are required”. Further, the “combination index analysis with cisplatin” value is “lower levels of synergy within a narrower range of doses” with DU145 cells (stattic:cisplatin ratio 1:5) and “lower levels of synergy” in the assay with A549 cells (stattic:cisplatin ratio 1:5). Besides, the IC50 in assay [2] was 9.14 ± 2.74 µM.
Regarding `O=C(O)C(=O)O.[NH-][C@@H]1CCCC[C@H]1[NH-].[Pt+2]` [Oxaliplatin, reference compound], the number of colonies result in assay [3] was “about 260”.
With `COc1cc(/C=C/C(=O)CC(=O)/C=C/c2ccc(O)c(OC)c2)ccc1O` [Curcumin], the IC50 in assay [2] turned out to be 37 ± 9.4 µM.
Turning to `CC1(C)C=C(CN2C/C(=C\c3ccc(F)cc3)C(=O)/C(=C/c3ccc(F)cc3)C2)C(C)(C)N1O` [HO-3867, reference compound], the IC50 in assay [2] is 29.7 ± 7.81 µM; in assay [4], 33 µM.
On to `O=C1C(O)=C([C@H]2CC[C@H](c3ccc(Cl)cc3)CC2)C(=O)c2ccccc21` [Atovaquone, reference compound], for which the IC50 turned out to be 24.4 ± 3.36 µM in assay [2] and 16.5 µM in assay [4].
